Broadly, the IC50 is the midpoint of a concentration-inhibition curve.

Each structure is given as a SMILES string. Active and inactive are the calls of the source.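 The calls were made as follows: active = compounds whose fitted half-maximal concentration in the cell-protection dose series is at or below a set limit; inactive = the rest.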

Experimental findings from PubChem BioAssay AID588780 (Sanford-Burnham Center for Chemical Genomics, 2011) are described below.

This assay deals with H9c2 cardiomyocytes, 2-deoxyglucose stress, ATP luminescence, 2 h. Briefly: protection of cardiomyocytes from 2-deoxyglucose injury, dose response, cell-based, 2-deoxyglucose stress, uHTS hits (AID 588780).
Regarding `Cc1cc(C)c(S(=O)(=O)N2CCN(C(=O)c3cc(=O)[nH]c4ccccc34)CC2)c(C)c1`, the IC50 was 19.3 µM.

As to `O=C(CCc1nc2ccccc2c(=O)[nH]1)NNC(=O)c1cccc(Cl)c1`, the IC50 was > 79 µM (inactive).

Regarding `Cc1nnc(SCC(=O)N/N=C/c2cn(-c3ccccc3)nc2-c2ccccc2)n1-c1ccccc1`, the 50% inhibitory concentration (IC50) is 14 µM. As for `CC(=O)c1ccc(-c2cnc3c(NC=O)cc(-c4ccc(C(=O)NC5CC5)cc4)cn23)cc1`, the figure is > 79 µM (inactive); as for `CN(C(=O)CSc1nc2c(c(=O)[nH]1)CCCC2)C1CCCCC1`, > 79 µM (inactive). As for `CCN(c1ccc(NC(=O)COC(=O)c2ccc([N+](=O)[O-])o2)cc1)C(C)C`, the figure is > 79 µM (inactive); as for `C/C(=N\NC(=O)c1c(Br)c(C)nn1C)c1ccc(NC(=O)c2ccoc2C)cc1`, > 79 µM (inactive). With `COc1cc(/C=N/n2nnnc2Nc2ccccc2)cc(OC)c1OC` the figure was 26.8 µM. With `Cc1cc(C(=O)N/N=C/c2cc(Br)ccc2OC(=O)c2ccccc2Cl)n[nH]1`, the IC50 was > 79 µM (inactive). As for `CCOc1cccc(-c2nn3c(-c4ccco4)nnc3s2)c1`, the figure is 22.6 µM; as for `O=C(COc1cccc2c1CCNC2=O)Nc1ccc(F)cc1`, > 79 µM (inactive). For the molecule `CCOCc1c(C(=O)NC2=Nc3ccccc3NC(CC)=C2C(=O)OCC)oc2ccccc12`, the IC50 was > 79 µM (inactive). As for `O=c1[nH]c(NCc2ccccc2)nc2c1CCCC2`, the figure is > 79 µM (inactive).

In the case of `COc1cc(C(=O)NCC(=O)N/N=C/c2ccc(-c3cccc([N+](=O)[O-])c3)o2)cc(OC)c1OC`, the half-maximal inhibitory concentration (IC50) is 12.5 µM. With `Cc1c(C=O)c2ccccn2c1C(=O)c1ccc(Cl)c([N+](=O)[O-])c1` the figure was > 79 µM (inactive). On to `COc1ccc(NC(=O)c2cc(-c3ccc(OC)c(OC)c3)nc3ccccc23)c(OC)c1`, for which the IC50 is > 79 µM (inactive).

In the case of `CCOC(=O)C(C)Oc1ccc(C2NC(=O)NC(C)=C2C(C)=O)cc1Br` (configuration not stated), the IC50 is > 79 µM (inactive). With `CC(C)OCCCNC(=O)CCC(=O)NNc1nc2ccccc2c2nc(-c3ccccc3)nn12` the figure was > 79 µM (inactive); with `CN(C)S(=O)(=O)c1ccc2[nH]cc(/C=C/c3nc4ccccc4c(=O)n3-c3ccccc3)c2c1`, > 79 µM (inactive). As for `Cc1ccccc1NC(=O)COC(=O)CCc1nc2ccccc2c(=O)[nH]1`, the figure is > 79 µM (inactive).

As to `Cc1ccc(-c2n[nH]c(=O)c3ccccc23)cc1S(N)(=O)=O`, the IC50 was > 79 µM (inactive). As to `COc1ccc(C(CC(=O)N2CCN(c3ccccc3)CC2)c2c(OC)cc(OC)c3ccc(=O)oc23)cc1` (configuration not stated), the IC50 is 23.2 µM.

In the case of `COC(=O)c1ccc(Cn2c(C)c(C(=O)NCc3cccs3)sc2=O)o1`, the IC50 is > 79 µM (inactive). As for `COc1cc2c(C#CCCO)c(-c3ccsc3)oc(=O)c2cc1OC`, the figure is > 79 µM (inactive). With `Cc1ccc(-c2csc(NC(=O)Cn3[nH]c(=O)c4ccccc4c3=O)n2)cc1` the figure was 13.8 µM; with `O=C(NCc1ccco1)c1cnn2c(C(F)(F)F)cc(-c3cccs3)nc12`, > 79 µM (inactive). With `COc1ccc(NC(=O)N(C)[C@H]2C[C@H]3c4[nH]c5ccc(-c6ccc7c(c6)OCO7)cc5c4CCN3C[C@H]2[C@H](C)O)cc1` the figure was > 79 µM (inactive). Turning to `COc1cccc(NC(=O)c2oc3ccc(S(=O)(=O)N4CCOCC4)cc3c2C)c1`, the IC50 is > 79 µM (inactive). As to `O=S(=O)(c1cccc(F)c1)N1CCN(c2nc(-c3cccnc3)nc3ccccc23)CC1`, the IC50 is 16.1 µM. As for `COc1cc(/C=C/c2nc3ccccc3c(=O)n2-c2ccccc2O)ccc1O`, the figure is 20.6 µM; as for `CCOc1ccc(CCNC(=O)c2cc3c(C)nccc3[nH]c2=O)cc1OCC`, 12.4 µM. For the molecule `S=C(Nc1ccc(N2CCOCC2)cc1)Nc1ccc2nc(-c3ccco3)c(-c3ccco3)nc2c1`, the IC50 was > 79 µM (inactive).
